Laboratory results reported in ChEMBL document CHEMBL1201862, “PubChem BioAssay data set” (2004).
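Step 1: Grow cells in 96-well plates. Step 2: Expose to compound for 48 hours at 5 concentrations. Step 3: Interpolate endpoints linearly; if unreached, use highest concentration. The concentration for 50% growth inhibition is given as GI50.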 Calls of active or inactive are those of the source. No stated cut-off is given here; in the data, active = GI50 up to about 1.1 µM and inactive = higher.

Columns and labels:
Assay in all cases: growth of human tumour cells (NCI), 48 h
HT-29 = tested on: HT-29
SK-MEL-5 = tested on: SK-MEL-5
K562 = tested on: K562
SW-620 = tested on: SW-620
M14 = tested on: M14
CAKI-1 = tested on: CAKI-1
T47D = tested on: T47D
DU-145 = tested on: DU-145
OVCAR-4 = tested on: OVCAR-4
SR = tested on: SR
SK-OV-3 = tested on: SK-OV-3
LOX IMVI = tested on: LOX IMVI
CCRF-CEM = tested on: CCRF-CEM
HOP-92 = tested on: HOP-92
NCI/ADR-RES = tested on: NCI/ADR-RES
U-251 = tested on: U-251
A498 = tested on: A498
SNB-19 = tested on: SNB-19
BT-549 = tested on: BT-549

SMILES | GI50 (HT-29) | GI50 (SK-MEL-5) | GI50 (K562) | GI50 (SW-620) | GI50 (M14) | GI50 (CAKI-1) | GI50 (T47D) | GI50 (DU-145) | GI50 (OVCAR-4) | GI50 (SR) | GI50 (SK-OV-3) | GI50 (LOX IMVI) | GI50 (CCRF-CEM) | GI50 (HOP-92) | GI50 (NCI/ADR-RES) | GI50 (U-251) | GI50 (A498) | GI50 (SNB-19) | GI50 (BT-549)
O=C(Nc1ccccc1)C(=O)C(C(=O)c1ccccc1)C(c1ccccc1)c1ccccc1 (stereo unspecified) | > 10 µM (inactive) | > 10 µM (inactive) | > 10 µM (inactive) | > 10 µM (inactive) | > 10 µM (inactive) | > 10 µM (inactive) | > 10 µM (inactive) | > 10 µM (inactive) | > 10 µM (inactive) | > 10 µM (inactive) | > 10 µM (inactive) | > 10 µM (inactive) | > 10 µM (inactive) | > 10 µM (inactive) |  |  |  |  | 
CC1CC(C)C2=NOS3=C2C1=NO3 (stereo unspecified) | > 100 µM (inactive) | 30.8 µM (inactive) | 53.8 µM (inactive) | > 100 µM (inactive) | > 100 µM (inactive) | > 100 µM (inactive) | > 100 µM (inactive) | > 100 µM (inactive) | > 100 µM (inactive) | > 100 µM (inactive) | > 100 µM (inactive) | > 100 µM (inactive) | > 100 µM (inactive) | > 100 µM (inactive) | > 100 µM (inactive) | > 100 µM (inactive) | 12.9 µM (inactive) | > 100 µM (inactive) | 
O=C(/C=C/c1ccccc1)c1cc(C(=O)/C=C/c2ccccc2)c(O)cc1O | > 100 µM (inactive) | 69.3 µM (inactive) |  | > 100 µM (inactive) | > 100 µM (inactive) | > 100 µM (inactive) |  |  | > 10 µM (inactive) |  | > 100 µM (inactive) | > 100 µM (inactive) |  | > 100 µM (inactive) |  |  | 31.9 µM (inactive) | > 100 µM (inactive) | > 100 µM (inactive)
N#Cc1c(N)oc(-c2ccc([N+](=O)[O-])cc2)c1C#N | 34.4 µM (inactive) | 17 µM (inactive) |  | 58.3 µM (inactive) | 75.3 µM (inactive) | 24.3 µM (inactive) | 27.2 µM (inactive) | 23.6 µM (inactive) |  | 54.2 µM (inactive) | 45.2 µM (inactive) | 44.2 µM (inactive) | 67.5 µM (inactive) | 24.1 µM (inactive) | 18.7 µM (inactive) | 39.4 µM (inactive) | 22.1 µM (inactive) | 27.5 µM (inactive) | 
CCOP(=O)(C=C=C1CCC2[C@@H]3CCc4cc(OC)ccc4C3CC[C@]12C)OCC (stereo partly specified) | 3.93 µM (inactive) | 2.98 µM (inactive) | 0.348 µM (active) | 12 µM (inactive) | 11.6 µM (inactive) | 12.9 µM (inactive) | 6.22 µM (inactive) | 14 µM (inactive) | 6.24 µM (inactive) | 1 µM (active) | 16.7 µM (inactive) | 9.06 µM (inactive) |  | 10.1 µM (inactive) | 6.47 µM (inactive) | 11 µM (inactive) | 12 µM (inactive) | 13.6 µM (inactive) | 
CC12ON=C(c3ccccc3)N1C=CN1C(c3ccccc3)=NOC12 (stereo unspecified) |  | 13 µM (inactive) |  |  | > 100 µM (inactive) | > 100 µM (inactive) |  | > 100 µM (inactive) |  |  | > 100 µM (inactive) | > 100 µM (inactive) |  |  | > 100 µM (inactive) |  |  | > 100 µM (inactive) | > 100 µM (inactive)
CCc1c2c(cc3c1CC1(C3)Cc3cc4c(c(C(=O)OC)c3C1)CCCC4)CCCC2 (stereo unspecified) | > 100 µM (inactive) | > 100 µM (inactive) | > 100 µM (inactive) |  | > 100 µM (inactive) |  | > 100 µM (inactive) |  | > 100 µM (inactive) | 51.8 µM (inactive) | > 100 µM (inactive) | > 100 µM (inactive) | 51.3 µM (inactive) | > 100 µM (inactive) | > 100 µM (inactive) | > 100 µM (inactive) | > 100 µM (inactive) |  | 
O=c1cc(N2CCCC2)[nH]c(=O)n1Cc1ccccc1 | > 100 µM (inactive) | > 100 µM (inactive) | > 100 µM (inactive) | > 100 µM (inactive) | > 100 µM (inactive) | > 100 µM (inactive) |  | > 100 µM (inactive) | > 100 µM (inactive) | > 100 µM (inactive) |  | > 100 µM (inactive) | > 100 µM (inactive) | > 100 µM (inactive) | > 100 µM (inactive) | > 100 µM (inactive) |  | > 100 µM (inactive) | > 100 µM (inactive)
NS(=O)(=O)c1cc(S(N)(=O)=O)c(NC(=O)Nc2ccc(Cl)c(Cl)c2)c(Cl)c1Cl | > 100 µM (inactive) | > 100 µM (inactive) | > 100 µM (inactive) | > 100 µM (inactive) | > 100 µM (inactive) | > 100 µM (inactive) |  |  | > 100 µM (inactive) | > 100 µM (inactive) | > 100 µM (inactive) | > 100 µM (inactive) |  | 4.18 µM (inactive) | > 100 µM (inactive) | > 100 µM (inactive) |  | > 100 µM (inactive) | > 100 µM (inactive)
